Measured values as given in PubChem BioAssay (NCI).
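GI50 = concentration required for 50% inhibition of growth. TGI marks complete inhibition of growth.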

What was measured:
Test in all cases: growth of human tumour cells (NCI), 384-well format
HOP-62 NSCLC = tested on: HOP-62 NSCLC
HL-60(TB) leukemia = tested on: HL-60(TB) leukemia
NCI-H322M lung = tested on: NCI-H322M lung
U251 glioblastoma = tested on: U251 glioblastoma
OVCAR-5 ovarian = tested on: OVCAR-5 ovarian
IGROV1 ovarian = tested on: IGROV1 ovarian
SNB-75 CNS = tested on: SNB-75 CNS
M14 melanoma = tested on: M14 melanoma
TK-10 renal = tested on: TK-10 renal
MALME-3M melanoma = tested on: MALME-3M melanoma
HCT-15 colon = tested on: HCT-15 colon
SK-MEL-28 melanoma = tested on: SK-MEL-28 melanoma
SK-OV-3 ovarian = tested on: SK-OV-3 ovarian
EKVX NSCLC = tested on: EKVX NSCLC
K-562 leukemia = tested on: K-562 leukemia
COLO 205 colon = tested on: COLO 205 colon
UACC-62 melanoma = tested on: UACC-62 melanoma
RPMI-8226 leukemia = tested on: RPMI-8226 leukemia
SN12C renal = tested on: SN12C renal
HS 578T breast = tested on: HS 578T breast
OVCAR-8 ovarian = tested on: OVCAR-8 ovarian
KM12 colon = tested on: KM12 colon
786-0 renal = tested on: 786-0 renal
MOLT-4 leukemia = tested on: MOLT-4 leukemia
HCC-2998 colon = tested on: HCC-2998 colon
A549 NSCLC = tested on: A549 NSCLC
MCF7 breast = tested on: MCF7 breast
LOX IMVI melanoma = tested on: LOX IMVI melanoma
RXF 393 renal = tested on: RXF 393 renal
UACC-257 melanoma = tested on: UACC-257 melanoma
SNB-19 CNS = tested on: SNB-19 CNS
DU-145 prostate = tested on: DU-145 prostate
NCI-H460 NSCLC = tested on: NCI-H460 NSCLC
SF-539 CNS = tested on: SF-539 CNS
UO-31 renal = tested on: UO-31 renal
NCI-H23 lung = tested on: NCI-H23 lung
OVCAR-3 ovarian = tested on: OVCAR-3 ovarian
NCI-H522 lung = tested on: NCI-H522 lung
CCRF-CEM leukemia = tested on: CCRF-CEM leukemia
SK-MEL-5 melanoma = tested on: SK-MEL-5 melanoma
BT-549 breast = tested on: BT-549 breast
SW-620 colon = tested on: SW-620 colon
MDA-MB-435 melanoma = tested on: MDA-MB-435 melanoma
A498 renal = tested on: A498 renal
MDA-MB-468 breast = tested on: MDA-MB-468 breast
SF-268 CNS = tested on: SF-268 CNS
NCI/ADR-RES ovarian = tested on: NCI/ADR-RES ovarian
OVCAR-4 ovarian = tested on: OVCAR-4 ovarian
MDA-MB-231 breast = tested on: MDA-MB-231 breast

In the case of `CN1CCN(Cc2ccc(Nc3ncc(Cl)c(Nc4ccccc4S(=O)(=O)N(C)C)n3)cc2)CC1`, the GI50 (HOP-62 NSCLC) is reported as 20.8 nM, the TGI (HOP-62 NSCLC) is reported as 73.6 nM and the GI50 (HL-60(TB) leukemia) is reported as < 10 nM. It also gave a TGI (HL-60(TB) leukemia) of 17.3 nM, a GI50 (NCI-H322M lung) of 129 nM and a TGI (NCI-H322M lung) of 351 nM. For the same compound, the GI50 (U251 glioblastoma) was 146 nM, the TGI (U251 glioblastoma) was 920 nM and the GI50 (OVCAR-5 ovarian) was 128 nM. The TGI (OVCAR-5 ovarian) was 605 nM, the GI50 (IGROV1 ovarian) was 62.6 nM and the TGI (IGROV1 ovarian) was 21200 nM. It also gave a GI50 (SNB-75 CNS) of 200 nM, a TGI (SNB-75 CNS) of 363 nM and a GI50 (M14 melanoma) of 98 nM. The TGI (M14 melanoma) was 235 nM, the GI50 (TK-10 renal) was 393 nM and the TGI (TK-10 renal) was 2880 nM. It also gave a GI50 (MALME-3M melanoma) of 116 nM, a TGI (MALME-3M melanoma) of 252 nM and a GI50 (HCT-15 colon) of 72.5 nM. For the same compound, the TGI (HCT-15 colon) was 371 nM, the GI50 (SK-MEL-28 melanoma) was 133 nM and the TGI (SK-MEL-28 melanoma) was 274 nM. For the same compound, the GI50 (SK-OV-3 ovarian) was 280 nM, the TGI (SK-OV-3 ovarian) was > 100000 nM and the GI50 (EKVX NSCLC) was 192 nM. The TGI (EKVX NSCLC) was 478 nM, the GI50 (K-562 leukemia) was 16.5 nM and the TGI (K-562 leukemia) was 233 nM. The GI50 (COLO 205 colon) was 16.9 nM, the TGI (COLO 205 colon) was 128 nM and the GI50 (UACC-62 melanoma) was < 10 nM. For the same compound, the TGI (UACC-62 melanoma) was 123 nM, the GI50 (RPMI-8226 leukemia) was < 10 nM and the TGI (RPMI-8226 leukemia) was 32.6 nM. For the same compound, the GI50 (SN12C renal) was 140 nM, the TGI (SN12C renal) was 358 nM and the GI50 (HS 578T breast) was 181 nM. For the same compound, the TGI (HS 578T breast) was 356 nM, the GI50 (OVCAR-8 ovarian) was 134 nM and the TGI (OVCAR-8 ovarian) was 420 nM. For the same compound, the GI50 (KM12 colon) was 16.5 nM, the TGI (KM12 colon) was 298 nM and the GI50 ([…]-0 renal) was 109 nM. The TGI (786-0 renal) was 1140 nM, the GI50 (MOLT-4 leukemia) was < 10 nM and the GI50 (HCC-2998 colon) was 32 nM. For the same compound, the TGI (HCC-2998 colon) was 251 nM, the GI50 (A549 NSCLC) was < 10 nM and the TGI (A549 NSCLC) was 750 nM. For the same compound, the GI50 (MCF7 breast) was < 10 nM, the TGI (MCF7 breast) was 1310 nM and the GI50 (LOX IMVI melanoma) was 20.5 nM. The TGI (LOX IMVI melanoma) was 201 nM, the GI50 (RXF 393 renal) was 162 nM and the TGI (RXF 393 renal) was 307 nM. The GI50 (UACC-257 melanoma) was 111 nM, the TGI (UACC-257 melanoma) was 253 nM and the GI50 (SNB-19 CNS) was 224 nM. For the same compound, the TGI (SNB-19 CNS) was > 100000 nM, the GI50 (DU-145 prostate) was 45.2 nM and the TGI (DU-145 prostate) was 15500 nM. For the same compound, the GI50 (NCI-H460 NSCLC) was < 10 nM, the TGI (NCI-H460 NSCLC) was 10.9 nM and the GI50 (SF-539 CNS) was 18.1 nM. The TGI (SF-539 CNS) was 139 nM, the GI50 (UO-31 renal) was 144 nM and the TGI (UO-31 renal) was 448 nM. It also gave a GI50 (NCI-H23 lung) of 98.2 nM, a TGI (NCI-H23 lung) of 234 nM and a GI50 (OVCAR-3 ovarian) of 52.7 nM. The TGI (OVCAR-3 ovarian) was 243 nM, the GI50 (NCI-H522 lung) was < 10 nM and the TGI (NCI-H522 lung) was 170 nM. The GI50 (CCRF-CEM leukemia) was < 10 nM, the TGI (CCRF-CEM leukemia) was 15.3 nM and the GI50 (SK-MEL-5 melanoma) was 29.2 nM. It also gave a TGI (SK-MEL-5 melanoma) of 186 nM, a GI50 (BT-549 breast) of 117 nM and a TGI (BT-549 breast) of 257 nM. The GI50 (SW-620 colon) was 44.8 nM, the TGI (SW-620 colon) was 306 nM and the GI50 (MDA-MB-435 melanoma) was 149 nM. It also gave a TGI (MDA-MB-435 melanoma) of 441 nM, a GI50 (A498 renal) of 136 nM and a TGI (A498 renal) of 671 nM. The GI50 (MDA-MB-468 breast) was 41.9 nM, the TGI (MDA-MB-468 breast) was 151 nM and the GI50 (SF-268 CNS) was 18.3 nM. It also gave a TGI (SF-268 CNS) of 78.8 nM, a GI50 (NCI/ADR-RES ovarian) of 191 nM and a TGI (NCI/ADR-RES ovarian) of 481 nM. It also gave a GI50 (OVCAR-4 ovarian) of 299 nM, a TGI (OVCAR-4 ovarian) of 888 nM and a GI50 (MDA-MB-231 breast) of 167 nM. It also gave a TGI (MDA-MB-231 breast) of 1130 nM.
